Data set [1] has as its system mixed bacteria in salivary sediment. Description: Eh lowering by amino acids or salivary supernatant in the salivary sediment system. Conditions: 3 mM amino acid, 16.7% salivary sediment, 60 mM phosphate buffer, 37° C., up to 24 hours; for Lowest Eh reached, Group B: Group B (next lowest Eh); for Lowest Eh reached, Group A: Group A (highest Eh levels). The text has this: This model utilizes the mixed oral bacteria collected in the salivary sediment obtained from whole saliva by centrifugation. […] This model is recognized in the art as an effective proxy to study the microbial metabolic and related biochemical processes of the oral cavity.
(§1) To collect salivary sediment and salivary supernatant for the assay, saliva stimulated by chewing paraffin wax was expectorated into test-tubes chilled in cracked ice. […] Following collection, the saliva was centrifuged at 1740×g for 15 minutes and the supernatant was subsequently removed by pipette and kept on ice until the assay was run. Next, the sediment was washed three times with ice cold distilled water to remove any residual salivary supernatant. The washed salivary sediment was chilled in crushed ice until the assay was run. Prior to incubating the samples and running the assay, the washed salivary sediment was re-suspended in distilled water to a final concentration of 50 percent (V/V).
A control tube contained sediment and water.
(§2) The oxidation-reduction potential (Eh) was determined in each incubation mixture using a platinum electrode and a potassium chloride salt bridge leading to a calomel reference electrode connected to a pH meter used as a millivoltmeter.

The subject of data set [2] is soft tissues of the oral cavity. To be noted: cited from earlier work.
The test system of data set [3] is mixed oral bacteria. Description: Eh during incubation of salivary sediment and salivary supernatant with zinc chloride and/or hydrogen peroxide (Example II). Conditions: zinc chloride 6.0 mM (0.08%), hydrogen peroxide 0.5%, 37° C., 24 hours. How it is done:
as §1, §2
A tube was prepared containing salivary sediment and salivary supernatant only (water control).

Data set [4] deals with oral bacteria. Description: In vivo cysteine rinse challenge, VSC (Halimeter) and tongue Eh before and after test rinse (Examples IV-VII). Details: species or system human subjects. As to the method: The ability of a zinc chloride rinse solution to reduce or prevent the formation of volatile sulfur compounds (VSC) in vivo following successive challenges with a cysteine rinse was studied in this Example. The rinse solution consisted of zinc chloride at 6 mM (0.08%). […] The subject rinsed his/her mouth with 5 ml of a 6 mM cysteine solution for 30 seconds to stimulate substantial VSC production by the oral bacteria. […] Before and following the rinse, a Halimeter instrument was used to measure the volatile sulfur compounds (VSC) produced. Simultaneously, a platinum electrode was placed on the posterior dorsum surface of the tongue, just anterior to the circumvallate papillae to measure the Eh. After 20 minutes, the subject rinsed his/her mouth with 5 ml of the zinc chloride solution for 30 seconds. Again, the VSC of the subject's mouth air and the Eh were measured. The subject then rinsed successively with the 6 mM cysteine solution at 40, 60, 140, 320 and 380 minutes and the VSC and Eh of the subject's oral cavity were re-measured each time (see FIG. 5) using the Halimeter and the platinum electrode.
(§3) As before, 5 ml of the zinc/peroxide/chloride ion composition of this invention was applied as a rinse for 30 seconds.
as §3
The abilities of 0.1% sodium chlorite rinse solutions, one without and one with zinc chloride at 6 mM (0.08%) were compared in this Example for their abilities to reduce or prevent the formation of VSC in vivo following successive challenges with a cysteine rinse as before. The oral rinse consisted of application of 5 ml for 30 seconds of either an 0.1% sodium chlorite solution or an 0.1% sodium chlorite solution to which zinc chloride at 0.08% had been added.

The conditions of data set [5]: 25° C.; cited from earlier work.
Data set [6] concerns oral bacteria. Description: Zinc ion concentration versus rate of volatile sulfur compound production from cysteine (FIG. 1). In kind it is cell-based. To be noted: inhibition is exponential. The source says:
Inhibition is exponential and occurs maximally once the zinc ion concentration reaches about 0.2%.

Take `N=C(N)NCCC[C@H](N)C(=O)O` [arginine]: the “Lowest Eh reached, Group B” value in data set [1] stood at 25 millivolts.

With `N[C@@H](CC(=O)O)C(=O)O` [aspartic], in data set [1], the “Lowest Eh reached, Group A” value came to 80 millivolts.

As for `N[C@@H](CCC(=O)O)C(=O)O` [glutamic], the “Lowest Eh reached, Group B” value in data set [1] is on record as 30 millivolts.

With `OO` [hydrogen peroxide], in data set [2], the “Hydrogen peroxide concentration above which it can be harmful to the soft tissues of the oral cavity” value is reported as 3.0 to 3.5%.

Regarding `NCCCC[C@H](N)C(=O)O` [lysine], in data set [1], the “Lowest Eh reached, Group A” value was 95 millivolts.

Turning to `NCCC[C@H](N)C(=O)O` [ornithine], the “Lowest Eh reached, Group B” value in data set [1] turned out to be 55 millivolts.

With `N[C@@H](Cc1ccccc1)C(=O)O` [phenylalanine], the “Lowest Eh reached, Group A” value in data set [1] is 100 millivolts.

Consider `N[C@@H](Cc1ccc(O)cc1)C(=O)O` [tyrosine], for which the “Lowest Eh reached, Group B” value in data set [1] came out at 40 millivolts.

In the case of `[Cl-].[Cl-].[Zn+2]` [zinc chloride], in data set [3], the “Decrease in the Eh during incubation” value is recorded as “some decrease in the Eh” and the “Eh of the incubation mixture compared to salivary supernatant plus salivary sediment control” value was “significantly raised the Eh”. Further, the “Time for which the VSC response to subsequent cysteine rinses was retarded” value in data set [4] (Example IV, zinc chloride 6 mM (0.08%), 5 ml rinse for 30 seconds) was “about 5 hours”. The “VSC response to cysteine rinsing” value in data set [4] (Example IV, zinc chloride 6 mM (0.08%), 5 ml rinse for 30 seconds, 6 mM cysteine challenges) is listed as “reduced the ability of the oral bacteria to produce the VSC response to cysteine rinsing”. Also, the Eh during rinsing result in data set [4] (Example IV, zinc chloride 6 mM (0.08%), platinum electrode on tongue dorsum) is reported as “raised to a small degree”. In addition, the Solubility in data set [5] was 432 @ 25 °C g/100 cc.

As to `[Zn+2]` [zinc ion], the “Zinc ion concentration at which inhibition of volatile sulfur compound production from cysteine is maximal” value in data set [6] is given as “about 0.2%”.

Take sodium chlorite: the “Inhibition of VSC production” value in data set [4] (Example VII, 0.1% sodium chlorite solution, 5 ml for 30 seconds) was “no inhibition of VSC production”.

(Values after patent US6929790B2, “Compositions to control oral microbial oxidation-reduction (Eh) levels” (priority 1996, dated 2005).)
